Experiments:
[1] = molecular target: T1, PCTK1A (Homo sapiens, UniProt Q00536); assay: DSF assay; assay type: binding; conditions: 20 µM compound
T1 construct: purchased in-house DSF panel (SGC-style construct names; the trailing A/B is a construct suffix)

[2] = molecular target: T2, STK10A (Homo sapiens, UniProt O94804); assay: DSF assay; assay type: binding; conditions: 20 µM compound
T2 construct: purchased in-house DSF panel (SGC-style construct names; the trailing A/B is a construct suffix)

[3] = molecular target: T3, EPHB3A (Homo sapiens, UniProt P54753); assay: DSF assay; assay type: binding; conditions: 20 µM compound
T3 construct: purchased in-house DSF panel (SGC-style construct names; the trailing A/B is a construct suffix)
T3 sequence (P54753 633-896): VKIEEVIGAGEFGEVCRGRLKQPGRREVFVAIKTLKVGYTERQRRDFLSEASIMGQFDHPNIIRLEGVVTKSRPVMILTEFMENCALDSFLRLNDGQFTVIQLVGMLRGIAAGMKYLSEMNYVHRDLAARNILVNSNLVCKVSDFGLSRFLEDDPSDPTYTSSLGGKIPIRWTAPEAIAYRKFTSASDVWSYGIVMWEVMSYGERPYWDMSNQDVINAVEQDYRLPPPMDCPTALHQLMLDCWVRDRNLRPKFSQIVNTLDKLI

[4] = molecular target: T4, MAP3K5A (Homo sapiens, UniProt Q99683); assay: DSF assay; assay type: binding; conditions: 20 µM compound
T4 construct: purchased in-house DSF panel (SGC-style construct names; the trailing A/B is a construct suffix)

[5] = molecular target: T5, PAK1A (Homo sapiens, UniProt Q13153); assay: DSF assay; assay type: binding; conditions: 20 µM compound
T5 construct: purchased in-house DSF panel (SGC-style construct names; the trailing A/B is a construct suffix)

[6] = molecular target: T6, DYRK1A (Homo sapiens, UniProt Q13627); assay: DSF assay; assay type: binding; conditions: 20 µM compound
T6 construct: purchased in-house DSF panel (SGC-style construct names; the trailing A/B is a construct suffix)

[7] = molecular target: T7, VRK1A (Homo sapiens, UniProt Q99986); assay: DSF assay; assay type: binding; conditions: 20 µM compound
T7 construct: purchased in-house DSF panel (SGC-style construct names; the trailing A/B is a construct suffix)
T7 sequence (Q99986 1-396): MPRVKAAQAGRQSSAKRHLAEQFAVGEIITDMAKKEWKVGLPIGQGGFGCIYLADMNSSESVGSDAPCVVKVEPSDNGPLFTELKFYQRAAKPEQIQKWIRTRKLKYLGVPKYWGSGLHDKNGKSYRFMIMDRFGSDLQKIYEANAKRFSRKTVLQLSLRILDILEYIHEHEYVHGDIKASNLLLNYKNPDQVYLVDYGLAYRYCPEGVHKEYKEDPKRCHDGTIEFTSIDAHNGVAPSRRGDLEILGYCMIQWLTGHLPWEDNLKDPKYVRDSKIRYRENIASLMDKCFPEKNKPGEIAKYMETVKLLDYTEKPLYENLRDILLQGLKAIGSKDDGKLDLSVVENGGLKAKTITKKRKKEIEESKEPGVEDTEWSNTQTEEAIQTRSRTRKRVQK

[8] = molecular target: T8, TOPKA (Homo sapiens, UniProt Q96KB5); assay: DSF assay; assay type: binding; conditions: 20 µM compound
T8 construct: purchased in-house DSF panel (SGC-style construct names; the trailing A/B is a construct suffix)
T8 sequence (Q96KB5 32-322): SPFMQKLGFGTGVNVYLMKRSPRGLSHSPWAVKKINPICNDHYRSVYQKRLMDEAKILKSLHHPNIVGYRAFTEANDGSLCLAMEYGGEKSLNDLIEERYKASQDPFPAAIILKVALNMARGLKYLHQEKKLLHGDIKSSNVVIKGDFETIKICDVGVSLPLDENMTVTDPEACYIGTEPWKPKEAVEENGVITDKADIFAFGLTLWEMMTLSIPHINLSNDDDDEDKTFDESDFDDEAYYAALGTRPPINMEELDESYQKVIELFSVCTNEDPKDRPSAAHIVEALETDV

[9] = molecular target: T9, FESA (Homo sapiens, UniProt P07332); assay: DSF assay; assay type: binding; conditions: 20 µM compound
T9 construct: purchased in-house DSF panel (SGC-style construct names; the trailing A/B is a construct suffix)

[10] = molecular target: T10, PAK4A (Homo sapiens, UniProt O96013); assay: DSF assay; assay type: binding; conditions: 20 µM compound
T10 construct: purchased in-house DSF panel (SGC-style construct names; the trailing A/B is a construct suffix)

[11] = molecular target: T11, FGFR1B (Homo sapiens, UniProt P11362); assay: DSF assay; assay type: binding; conditions: 20 µM compound
T11 construct: purchased in-house DSF panel (SGC-style construct names; the trailing A/B is a construct suffix)

[12] = molecular target: T12, DAPK1A (Homo sapiens, UniProt P53355); assay: DSF assay; assay type: binding; conditions: 20 µM compound
T12 construct: purchased in-house DSF panel (SGC-style construct names; the trailing A/B is a construct suffix)

[13] = molecular target: T13, ITK (Homo sapiens, UniProt Q08881); assay: Western blot assay; assay type: cell-based; conditions: Jurkat cells, 6 h
T13 construct: endogenous in cells; host or cells: Jurkat
T13 sequence (Q08881 1-620): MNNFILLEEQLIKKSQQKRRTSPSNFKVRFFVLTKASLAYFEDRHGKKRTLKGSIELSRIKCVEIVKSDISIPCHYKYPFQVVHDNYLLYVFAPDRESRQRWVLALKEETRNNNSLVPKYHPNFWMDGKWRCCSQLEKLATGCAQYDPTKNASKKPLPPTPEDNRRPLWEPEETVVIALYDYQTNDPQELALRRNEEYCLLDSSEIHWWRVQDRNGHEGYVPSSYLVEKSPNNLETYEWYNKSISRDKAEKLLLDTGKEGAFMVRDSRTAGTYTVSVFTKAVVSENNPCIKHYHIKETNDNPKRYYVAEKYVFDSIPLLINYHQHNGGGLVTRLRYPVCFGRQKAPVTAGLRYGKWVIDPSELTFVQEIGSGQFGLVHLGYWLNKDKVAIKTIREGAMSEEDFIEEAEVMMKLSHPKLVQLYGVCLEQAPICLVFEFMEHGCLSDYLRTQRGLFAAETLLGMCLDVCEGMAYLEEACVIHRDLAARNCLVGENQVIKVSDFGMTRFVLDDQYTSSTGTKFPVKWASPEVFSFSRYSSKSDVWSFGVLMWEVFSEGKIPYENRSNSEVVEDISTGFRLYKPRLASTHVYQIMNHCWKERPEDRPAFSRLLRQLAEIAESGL
Procedure: Two mL of Jurkat cells were seeded into 6 well plates (Greiner) at a density of 5·10 5 cells/mL.
The following day, cells were treated with compounds at according concentrations or DMSO for 6 hours and then lysed with 6 M Urea at 4 °C for 20 minutes. The lysates were centrifuged for 15 minutes at 16000 g and the supernatant was collected to perform the Western-Blot.
Protein quantification was performed using nanodrop One. The SDS samples were prepared […]
The samples were separated by a BIS-TRIS polyacrylamide gel polyacrylamide gel, 100 V for 1:45) followed by transfer to PVDF membranes (Millipore) at 350 mA for 140 minutes. The membranes were blocked using 5%wt/vol BSA (in TBS-T, 20 mM Tris-HCl, pH 7.5, 150 mM NaCl and 0.1% (vol/vol) Tween 20) at room temperature for 1 hour.
The blots were incubated with respective primary antibodies at 1:1000 dilution (Cell Signaling technologies: Aurora A (D3E4Q), ITK (2F12) and GAPDH (D4C6R)) at 4 °C overnight. The blots were washed with TBS-T thrice and incubated with 1:5000 dilution of horseradish peroxidase (HRP)-labelled respective secondary antibodies (Cell Signaling technologies, Anti- […]
The blots were washed with TBS-T thrice and then incubated with chemiluminescent HRP substrate (Bio-Rad) for 2 minutes. The blots were imaged and the signals were detected using the Amersham ImageQuant 800 (Cytiva).
Cell culture. Human MV4-11 ([…]) and human Jurkat ([…]) cells were cultured in RPMI- […]
°C in 5% CO2. Both media were supplemented with 10% FBS and 1% penicillin/streptomycin. […]

T2 sequence (O94804 18-317): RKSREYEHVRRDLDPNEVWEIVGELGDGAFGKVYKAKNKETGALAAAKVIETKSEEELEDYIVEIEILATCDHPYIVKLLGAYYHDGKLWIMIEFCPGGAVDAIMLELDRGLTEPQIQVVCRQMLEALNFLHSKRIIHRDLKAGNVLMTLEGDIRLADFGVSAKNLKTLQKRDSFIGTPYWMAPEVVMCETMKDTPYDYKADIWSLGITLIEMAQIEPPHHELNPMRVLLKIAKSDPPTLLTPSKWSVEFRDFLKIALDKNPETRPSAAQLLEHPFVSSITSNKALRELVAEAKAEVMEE
T5 sequence (Q13153 249-545): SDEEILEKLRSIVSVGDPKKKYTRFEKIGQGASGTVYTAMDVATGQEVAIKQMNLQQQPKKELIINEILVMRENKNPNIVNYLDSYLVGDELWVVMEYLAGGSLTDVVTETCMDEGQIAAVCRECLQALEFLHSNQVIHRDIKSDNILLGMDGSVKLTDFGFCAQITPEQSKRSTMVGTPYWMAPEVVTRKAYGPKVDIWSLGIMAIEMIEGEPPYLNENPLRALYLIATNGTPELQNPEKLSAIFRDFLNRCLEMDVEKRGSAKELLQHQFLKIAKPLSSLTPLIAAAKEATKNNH
T9 sequence (P07332 whole entry): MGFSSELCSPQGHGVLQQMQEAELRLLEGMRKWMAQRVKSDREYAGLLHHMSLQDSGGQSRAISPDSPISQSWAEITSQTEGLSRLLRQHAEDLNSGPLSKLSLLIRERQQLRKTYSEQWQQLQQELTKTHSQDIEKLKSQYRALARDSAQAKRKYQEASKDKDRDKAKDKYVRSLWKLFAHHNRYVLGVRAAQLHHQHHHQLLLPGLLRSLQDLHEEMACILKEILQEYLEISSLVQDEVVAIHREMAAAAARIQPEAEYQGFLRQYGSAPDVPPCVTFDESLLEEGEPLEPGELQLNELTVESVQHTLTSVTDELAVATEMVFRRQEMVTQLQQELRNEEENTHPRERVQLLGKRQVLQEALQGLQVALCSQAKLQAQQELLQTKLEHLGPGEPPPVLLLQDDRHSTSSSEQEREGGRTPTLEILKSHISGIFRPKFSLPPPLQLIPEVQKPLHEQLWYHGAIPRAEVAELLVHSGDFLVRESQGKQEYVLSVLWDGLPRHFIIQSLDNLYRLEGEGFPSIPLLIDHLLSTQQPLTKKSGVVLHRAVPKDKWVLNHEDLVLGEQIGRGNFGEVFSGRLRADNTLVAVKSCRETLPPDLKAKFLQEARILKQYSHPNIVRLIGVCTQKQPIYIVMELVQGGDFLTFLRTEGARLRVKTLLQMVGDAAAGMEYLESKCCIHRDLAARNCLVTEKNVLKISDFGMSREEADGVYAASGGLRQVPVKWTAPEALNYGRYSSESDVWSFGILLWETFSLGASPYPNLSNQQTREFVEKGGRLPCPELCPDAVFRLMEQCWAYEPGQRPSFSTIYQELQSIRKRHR
T12 sequence (P53355 1-285): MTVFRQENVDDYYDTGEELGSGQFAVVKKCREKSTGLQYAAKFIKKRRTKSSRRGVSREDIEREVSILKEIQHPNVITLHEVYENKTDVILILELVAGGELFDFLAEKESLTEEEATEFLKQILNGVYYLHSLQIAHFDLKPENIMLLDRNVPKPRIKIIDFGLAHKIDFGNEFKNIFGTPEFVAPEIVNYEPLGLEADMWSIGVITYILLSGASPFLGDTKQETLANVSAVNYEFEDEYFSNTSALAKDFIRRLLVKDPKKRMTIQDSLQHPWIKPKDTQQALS
T4 sequence (Q99683 659-951): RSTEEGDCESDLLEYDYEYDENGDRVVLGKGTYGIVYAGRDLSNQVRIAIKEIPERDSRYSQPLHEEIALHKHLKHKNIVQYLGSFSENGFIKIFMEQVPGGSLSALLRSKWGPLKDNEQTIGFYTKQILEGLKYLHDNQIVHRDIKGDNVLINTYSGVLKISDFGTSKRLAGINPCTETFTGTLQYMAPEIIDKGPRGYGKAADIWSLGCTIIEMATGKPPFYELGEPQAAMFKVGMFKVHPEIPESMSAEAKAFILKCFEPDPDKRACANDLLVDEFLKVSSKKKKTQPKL
T1 sequence (Q00536 163-478): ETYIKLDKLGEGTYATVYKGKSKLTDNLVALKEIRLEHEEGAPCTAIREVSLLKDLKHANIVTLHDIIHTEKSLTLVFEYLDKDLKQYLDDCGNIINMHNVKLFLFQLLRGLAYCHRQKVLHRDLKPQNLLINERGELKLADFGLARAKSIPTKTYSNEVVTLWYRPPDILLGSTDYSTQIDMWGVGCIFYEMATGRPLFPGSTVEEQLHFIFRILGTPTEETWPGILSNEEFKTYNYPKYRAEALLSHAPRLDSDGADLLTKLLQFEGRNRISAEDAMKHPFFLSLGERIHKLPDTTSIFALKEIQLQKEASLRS
T10 sequence (O96013 291-591): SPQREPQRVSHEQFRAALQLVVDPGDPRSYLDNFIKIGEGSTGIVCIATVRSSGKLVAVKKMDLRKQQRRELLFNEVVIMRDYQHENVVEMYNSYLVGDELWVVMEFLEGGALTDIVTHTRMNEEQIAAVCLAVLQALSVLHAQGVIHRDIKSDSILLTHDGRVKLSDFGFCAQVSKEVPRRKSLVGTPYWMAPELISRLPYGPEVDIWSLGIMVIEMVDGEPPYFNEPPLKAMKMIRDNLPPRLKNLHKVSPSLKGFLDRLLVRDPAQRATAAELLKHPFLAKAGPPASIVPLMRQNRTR
T11 sequence (P11362 456-767): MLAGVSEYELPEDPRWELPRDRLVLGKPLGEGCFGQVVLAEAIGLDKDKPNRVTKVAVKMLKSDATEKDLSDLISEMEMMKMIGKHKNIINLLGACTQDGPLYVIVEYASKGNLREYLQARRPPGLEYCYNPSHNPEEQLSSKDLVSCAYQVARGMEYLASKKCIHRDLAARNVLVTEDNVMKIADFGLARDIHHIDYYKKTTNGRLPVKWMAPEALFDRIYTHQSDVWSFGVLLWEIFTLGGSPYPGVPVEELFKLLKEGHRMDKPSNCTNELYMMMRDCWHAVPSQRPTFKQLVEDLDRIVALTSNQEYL

Structure (SMILES) | ΔTm at 20 µM [1] | ΔTm at 20 µM [2] | ΔTm at 20 µM [3] | ΔTm at 20 µM [4] | ΔTm at 20 µM [5] | ΔTm at 20 µM [6] | ΔTm at 20 µM [7] | ΔTm at 20 µM [8] | ΔTm at 20 µM [9] | ΔTm at 20 µM [10] | ΔTm at 20 µM [11] | ΔTm at 20 µM [12] | ITK protein levels (Western blot) [13]
Cc1ncsc1-c1ccc(CNC(=O)[C@@H]2C[C@@H](O)CN2C(=O)[C@@H](NC(=O)CCOCCOCCOCCOCCN2CCN(c3ccc(Nc4ncc(Cl)c(Nc5ccccc5C(N)=O)n4)cc3)CC2)C(C)(C)C)cc1 [6-b] | – | – | – | – | – | – | – | – | – | – | – | – | dose-dependent degradation of ITK
Cc1ncsc1-c1ccc(CNC(=O)[C@@H]2C[C@H](O)CN2C(=O)[C@@H](NC(=O)CCOCCOCCOCCN2CCN(c3cc(Nc4cc(C5CC5)[nH]n4)nc(Nc4ccc(CC#N)cc4)n3)CC2)C(C)(C)C)cc1 [4-a^neg] | – | – | – | – | – | – | – | – | – | – | – | – | did not cause any degradation of ITK
Cc1ncsc1-c1ccc(CNC(=O)[C@@H]2C[C@H](O)CN2C(=O)[C@@H](NC(=O)CCOCCOCCOCCOCCN2CCN(c3ccc(Nc4ncc(Cl)c(Nc5ccccc5C(N)=O)n4)cc3)CC2)C(C)(C)C)cc1 [6-b^neg] | – | – | – | – | – | – | – | – | – | – | – | – | did not cause any degradation of ITK
Cc1ncsc1-c1ccc(CNC(=O)[C@@H]2C[C@@H](O)CN2C(=O)[C@@H](NC(=O)CCOCCOCCOCCN2CCN(c3cc(Nc4cc(C5CC5)[nH]n4)nc(Nc4ccc(CC#N)cc4)n3)CC2)C(C)(C)C)cc1 [4-a] | – | – | – | – | – | – | – | – | – | – | – | – | dose-dependent degradation of ITK
CC(C)(C)OC(=O)NCCOCCOCCOCCOCCC(=O)N1CCN(c2cc(Nc3cc(C4CC4)[nH]n3)nc(Nc3ccc(CC#N)cc3)n2)CC1 [4-L] | 4.55 °C | 11.8 °C | 6.97 °C | 8.63 °C | 0.92 °C | 7.48 °C | 0.29 °C | 0.95 °C | 4.19 °C | 11 °C | 6.61 °C | 2.7 °C | –

Now from value to compound:

ΔTm at 20 µM [1] | ΔTm at 20 µM [2] | ΔTm at 20 µM [3] | ΔTm at 20 µM [4] | ΔTm at 20 µM [5] | ΔTm at 20 µM [6] | ΔTm at 20 µM [7] | ΔTm at 20 µM [8] | ΔTm at 20 µM [9] | ΔTm at 20 µM [10] | ΔTm at 20 µM [11] | ΔTm at 20 µM [12] | ITK protein levels (Western blot) [13] | Structure (SMILES)
5.96 °C | 9.37 °C | 4.23 °C | 6.97 °C | 1.05 °C | 6.85 °C | 0.7 °C | 2.93 °C | 3.17 °C | 7.87 °C | 5.22 °C | 3.22 °C | – | CCOC(=O)c1cc(Nc2cc(C3CC3)[nH]n2)nc(Nc2ccc(CC#N)cc2)n1 [compound 5]
4.53 °C | 7.84 °C | 2.47 °C | 8.95 °C | -0.24 °C | 8.01 °C | 0.51 °C | 1.75 °C | 2.67 °C | 9.26 °C | 3.47 °C | 1.49 °C | – | CC(C)(C)OC(=O)NCCCOCCOCCOCCCNC(=O)c1cc(Nc2cc(C3CC3)[nH]n2)nc(Nc2ccc(CC#N)cc2)n1 [5-L]

— publication PMC11851430, “Workflow for E3 Ligase Ligand Validation for PROTAC Development” (ACS Chemical Biology, 2025)
